Data on twelve molecules can be found in patent US20080051418A1, “Arylalkanoic Acid Derivative” (priority 2004, published 2008).

The subject of one data set is KKA^y mice. The data set is described as follows: Blood glucose and blood lipid (triglyceride) lowering action in mice. In kind it is in vivo. The note with it: Mus musculus, po, 96 h, 0.005% in powder diet, 4 days, non-administration group = 100%. The source says: The test compound was mixed with a powder diet (CE-2, CLEA JAPAN, INC.) at a proportion of 0.005% (0.01% for the compound of Example 105) and freely given to KKA^y mice (9 to 12-week-old, 5 mice per group) which are obesity-insulin independent diabetes mellitus (type-2 diabetes) models, for 4 days. During this period, water was freely given. The blood was drawn from the orbital venous plexus. Glucose and triglyceride in the plasma separated from the blood were quantitated using L Type Wako Glu2 (Wako Pure Chemical Industries, Ltd.) and L Type Wako TG•H (Wako Pure Chemical Industries, Ltd.), respectively, according to an enzyme method.

For a further data set, the target named is T1, PPARγ-RXRα heterodimer (Homo sapiens, UniProt P37231).
T1 construct: expressed in transfected cells; host or cells: CHO-K1
T1 sequence (P37231 1-505): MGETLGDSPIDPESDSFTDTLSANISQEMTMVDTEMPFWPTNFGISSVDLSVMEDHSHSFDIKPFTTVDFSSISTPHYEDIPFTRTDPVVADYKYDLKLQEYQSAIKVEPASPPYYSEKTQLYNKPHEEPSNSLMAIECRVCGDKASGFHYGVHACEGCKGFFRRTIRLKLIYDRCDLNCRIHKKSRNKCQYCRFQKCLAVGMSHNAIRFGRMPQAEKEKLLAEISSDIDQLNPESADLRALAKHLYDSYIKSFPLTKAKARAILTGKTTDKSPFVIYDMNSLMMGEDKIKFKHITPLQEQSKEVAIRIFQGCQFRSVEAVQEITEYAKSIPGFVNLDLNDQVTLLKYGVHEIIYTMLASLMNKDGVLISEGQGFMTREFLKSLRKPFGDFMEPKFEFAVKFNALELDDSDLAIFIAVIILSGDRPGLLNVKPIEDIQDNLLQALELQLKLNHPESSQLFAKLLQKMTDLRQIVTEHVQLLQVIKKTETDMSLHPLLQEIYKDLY
T1 sequence (P19793 1-462 partner): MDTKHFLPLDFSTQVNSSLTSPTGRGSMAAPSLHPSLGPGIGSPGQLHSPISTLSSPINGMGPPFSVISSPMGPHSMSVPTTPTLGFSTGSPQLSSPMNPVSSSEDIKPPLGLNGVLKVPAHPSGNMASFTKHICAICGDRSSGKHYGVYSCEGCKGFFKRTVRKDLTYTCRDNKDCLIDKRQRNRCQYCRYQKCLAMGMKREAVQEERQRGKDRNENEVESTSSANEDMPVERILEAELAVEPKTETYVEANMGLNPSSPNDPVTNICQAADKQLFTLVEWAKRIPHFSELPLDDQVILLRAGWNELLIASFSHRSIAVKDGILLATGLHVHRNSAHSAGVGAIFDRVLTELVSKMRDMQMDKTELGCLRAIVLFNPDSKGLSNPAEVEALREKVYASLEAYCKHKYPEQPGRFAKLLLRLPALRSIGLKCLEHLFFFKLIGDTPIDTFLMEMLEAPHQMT
The experiment in a line: PPARγ-RXRα heterodimer ligand activity (luciferase reporter). The data set is classed as cell-based. The following applies: PPARγ:RXRα:4ERPP/CHO-K1 cells, 18-24 hr, concentration showing 50% of the maximum induction rate. The procedure: The PPARγ:RXRα:4ERPP/CHO-K1 cells described in WO03/099793 were cultured in a Ham F12 medium [manufactured by Life Technologies, Inc., US] containing 10% calf fetal serum [manufactured by Life Technologies, Inc., US], sown in a 96-well white plate [manufactured by Corning Coster Corporation, US] at 2×10^4 cells/well, and incubated overnight in a carbon dioxide gas incubator at 37° C.
Then, the medium was removed from the 96 well white plate, 80 μl of Ham F12 medium containing 0.1% fatty acid-free bovine serum albumin (BSA) and a test compound (20 μl) were added, and the cells were incubated for 18-24 hr in a carbon dioxide gas incubator at 37° C. The medium was removed, 40 μl of PicaGene 7.5 (manufactured by Wako Pure Chemical Industries, Ltd.) diluted 2-fold with HBSS (HANKS' BALANCED SALT SOLUTION) [manufactured by BIO WHITTAKER, US] was added. After stirring, the luciferase activity was determined using the 1420 ARVO Multilabel Counter [manufactured by PerkinElmer, US].
The induction rate was calculated from the luciferase activity of each test compound based on the luciferase activity of the test compound non-administration group as 1. The test compound concentration and the induction rate were analyzed by PRISM [manufactured by GraphPad Software, Inc., US] to calculate EC50 value (compound concentration showing 50% of the maximum value of induction rate) of the test compound.

Setting [1] is: lowering rate of plasma glucose, read-out: hypoglycemic action (%).
The mark [2] stands for this setting: lowering rate of plasma triglyceride, read-out: hypolipidemic action (%).

Structures are written as SMILES. Structures can show the parent of a compound that is named as a salt. Where two headings read alike, the source gives them in different places.

Turning to `COc1cccc(CC(=O)O)c1OCCCc1cc(OC(C)C)nn1C(C)c1ccc(Cl)cc1Cl` (centres unmarked) [Example 17, [2-(3-{1-[1-(2,4-dichlorophenyl)ethyl]-3-isopropoxy-1H-pyrazol-5-yl}propoxy)-3-methoxyphenyl]acetic acid], the inhibition in vivo at 0.005 % came out at 57% in the data set on KKA^y mice (setting [1]) and 78% in the data set on KKA^y mice (setting [2]). In addition, at PPARγ-RXRα heterodimer, a half-maximal response (EC50) required 6.2 nM.
In the same order, the values of `COc1cccc(CC(=O)O)c1OCCCc1cc(OC(C)C)nn1Cc1ccccc1C` [Example 21, (2-{3-[3-isopropoxy-1-(2-methylbenzyl)-1H-pyrazol-5-yl]propoxy}-3-methoxyphenyl)acetic acid] are 51%, 78% and 41 nM.
Regarding `CC(C)Oc1cc(CCCOc2ncccc2CC(=O)O)n(Cc2ccc(Cl)cc2Cl)n1` [Example 31, (2-{3-[1-(2,4-dichlorobenzyl)-3-isopropoxy-1H-pyrazol-5-yl]propoxy}pyridin-3-yl)acetic acid], the melting point fell in the range of 88 to 90 °C. For the same molecule, in the data set on KKA^y mice (setting [1]), the inhibition in vivo at 0.005 % came to 44%. In addition, the inhibition in vivo at 0.005 % with KKA^y mice (setting [2]) was 55%. Further, at PPARγ-RXRα heterodimer, it took 14 nM to reach a half-maximal effect (EC50).
On to `COc1cccc(CC(=O)O)c1OCCCc1cc(OC(C)C)nn1Cc1ccc(F)cc1F` [Example 60, (2-{3-[1-(2,4-difluorobenzyl)-3-isopropoxy-1H-pyrazol-5-yl]propoxy}-3-methoxyphenyl)acetic acid], for which the inhibition in vivo at 0.005 % came to 54% in the data set with KKA^y mice (setting [1]) and 76% with KKA^y mice (setting [2]).
As to `COc1cccc(CC(=O)O)c1OCCCc1cc(OC(C)C)nn1Cc1ccccc1Cl` [Example 61, (2-{3-[1-(2-chlorobenzyl)-3-isopropoxy-1H-pyrazol-5-yl]propoxy}-3-methoxyphenyl)acetic acid], the inhibition in vivo at 0.005 % with KKA^y mice (setting [1]) came to 51%; in the data set with KKA^y mice (setting [2]), 90%. In addition, on PPARγ-RXRα heterodimer, the midpoint of the response, the EC50, lay at 25 nM.
In the same order, the values of `CC(C)c1cc(CCCOc2nn(Cc3ccccc3)cc2CC(=O)O)n(Cc2ccc(C(F)(F)F)cc2Cl)n1` [Example 76, [1-benzyl-3-(3-{1-[2-chloro-4-(trifluoromethyl)benzyl]-3-isopropyl-1H-pyrazol-5-yl}propoxy)-1H-pyrazol-4-yl]acetic acid 1/2 calcium salt] are 64%, 57% and 1.5 nM.
For the molecule `CC(C)c1cc(CCCOc2ncccc2CC(=O)O)n(Cc2ccc(C(F)(F)F)cc2Cl)n1` [Example 77, [2-(3-{1-[2-chloro-4-(trifluoromethyl)benzyl]-3-isopropyl-1H-pyrazol-5-yl}propoxy)pyridin-3-yl]acetic acid], the melting point was in the range of 114 to 115 °C. For the same molecule, the inhibition in vivo at 0.005 % with KKA^y mice (setting [1]) was 63%. For the same molecule, the inhibition in vivo at 0.005 % with KKA^y mice (setting [2]) stood at 42%. Moreover, the midpoint of the response on PPARγ-RXRα heterodimer, the EC50, lay at 5.4 nM.
On to `Cc1cc(C(F)(F)F)ccc1Cn1nc(OC(C)C)cc1CCCOc1nn(Cc2ccccc2)cc1CC(=O)O` [Example 78, [1-benzyl-3-(3-{3-isopropoxy-1-[2-methyl-4-(trifluoromethyl)benzyl]-1H-pyrazol-5-yl}propoxy)-1H-pyrazol-4-yl]acetic acid], for which the results for the inhibition in vivo at 0.005 % in the data set on KKA^y mice (setting [1]) and in the data set with KKA^y mice (setting [2]) were 63% and 55%, respectively. The molecule also gave a half-maximal effective concentration (EC50) at PPARγ-RXRα heterodimer of 1.3 nM.
Molecule `CC(C)Oc1cc(CCCOc2nn(Cc3ccccc3)cc2CC(=O)O)n(Cc2ccc(Cl)cc2Cl)n1` [Example 86, (1-benzyl-3-{3-[1-(2,4-dichlorobenzyl)-3-isopropoxy-1H-pyrazol-5-yl]propoxy}-1H-pyrazol-4-yl)acetic acid] had a melting point of 108 to 110 °C. In the data set with KKA^y mice (setting [1]), the inhibition in vivo at 0.005 % worked out at 51%. In the data set on KKA^y mice (setting [2]), the inhibition in vivo at 0.005 % was 51%. The molecule also yielded a concentration for a half-maximal effect (EC50) at PPARγ-RXRα heterodimer of 2.5 nM.
`COCOc1cc(CCCOc2nn(Cc3ccccc3)cc2CC(=O)O)n(Cc2ccc(Cl)cc2Cl)n1` [Example 95, (1-benzyl-3-{3-[1-(2,4-dichlorobenzyl)-3-(methoxymethoxy)-1H-pyrazol-5-yl]propoxy}-1H-pyrazol-4-yl)acetic acid] displayed a melting point of 89.5 to 91.5 °C. For the same molecule, the inhibition in vivo at 0.005 % in the data set with KKA^y mice (setting [1]) worked out at 65%. Besides, the inhibition in vivo at 0.005 % in the data set with KKA^y mice (setting [2]) came to 65%. The same molecule returned a concentration giving a half-maximal response (EC50) on PPARγ-RXRα heterodimer of 2.4 nM.
The molecule `CCn1nc(OCCCc2ccc(OCCOC)cc2Oc2ncc(C(F)(F)F)cc2Cl)cc1CCC(=O)O` [Example 149, 3-(3-{3-[2-{[3-chloro-5-(trifluoromethyl)pyridin-2-yl]oxy}-4-(2-methoxyethoxy)phenyl]propoxy}-1-ethyl-1H-pyrazol-5-yl)propanoic acid] showed a melting point of 101 to 103 °C. Moreover, the inhibition in vivo at 0.005 % in the data set on KKA^y mice (setting [1]) was determined as 57%. The inhibition in vivo at 0.005 % in the data set with KKA^y mice (setting [2]) is 51%. The EC50 on PPARγ-RXRα heterodimer came out at 5 nM.
`CCn1nc(OCCCc2ccc(OCCOC(C)C)cc2Oc2ncc(C(F)(F)F)cc2Cl)cc1CCC(=O)O` [Example 150, 3-(3-{3-[2-{[3-chloro-5-(trifluoromethyl)pyridin-2-yl]oxy}-4-(2-isopropoxyethoxy)phenyl]propoxy}-1-ethyl-1H-pyrazol-5-yl)propanoic acid] yielded a melting point of 130.5 to 131.5 °C. Further, the inhibition in vivo at 0.005 % with KKA^y mice (setting [1]) is 58%. Moreover, in the data set with KKA^y mice (setting [2]), the inhibition in vivo at 0.005 % came out at 54%. Also, at PPARγ-RXRα heterodimer, it took 2.6 nM to reach a half-maximal effect (EC50).
